Consider 19 compounds from patent publication US20250346569A1, “NEW DERIVATIVES FOR TREATING TRPM3 MEDIATED DISORDERS” (Katholieke Universiteit Leuven, priority 2022, published 2025).

Bounds are passed on as bounds.

T1 sequence (J9SQF3 1-1709 isoform J9SQF3-12): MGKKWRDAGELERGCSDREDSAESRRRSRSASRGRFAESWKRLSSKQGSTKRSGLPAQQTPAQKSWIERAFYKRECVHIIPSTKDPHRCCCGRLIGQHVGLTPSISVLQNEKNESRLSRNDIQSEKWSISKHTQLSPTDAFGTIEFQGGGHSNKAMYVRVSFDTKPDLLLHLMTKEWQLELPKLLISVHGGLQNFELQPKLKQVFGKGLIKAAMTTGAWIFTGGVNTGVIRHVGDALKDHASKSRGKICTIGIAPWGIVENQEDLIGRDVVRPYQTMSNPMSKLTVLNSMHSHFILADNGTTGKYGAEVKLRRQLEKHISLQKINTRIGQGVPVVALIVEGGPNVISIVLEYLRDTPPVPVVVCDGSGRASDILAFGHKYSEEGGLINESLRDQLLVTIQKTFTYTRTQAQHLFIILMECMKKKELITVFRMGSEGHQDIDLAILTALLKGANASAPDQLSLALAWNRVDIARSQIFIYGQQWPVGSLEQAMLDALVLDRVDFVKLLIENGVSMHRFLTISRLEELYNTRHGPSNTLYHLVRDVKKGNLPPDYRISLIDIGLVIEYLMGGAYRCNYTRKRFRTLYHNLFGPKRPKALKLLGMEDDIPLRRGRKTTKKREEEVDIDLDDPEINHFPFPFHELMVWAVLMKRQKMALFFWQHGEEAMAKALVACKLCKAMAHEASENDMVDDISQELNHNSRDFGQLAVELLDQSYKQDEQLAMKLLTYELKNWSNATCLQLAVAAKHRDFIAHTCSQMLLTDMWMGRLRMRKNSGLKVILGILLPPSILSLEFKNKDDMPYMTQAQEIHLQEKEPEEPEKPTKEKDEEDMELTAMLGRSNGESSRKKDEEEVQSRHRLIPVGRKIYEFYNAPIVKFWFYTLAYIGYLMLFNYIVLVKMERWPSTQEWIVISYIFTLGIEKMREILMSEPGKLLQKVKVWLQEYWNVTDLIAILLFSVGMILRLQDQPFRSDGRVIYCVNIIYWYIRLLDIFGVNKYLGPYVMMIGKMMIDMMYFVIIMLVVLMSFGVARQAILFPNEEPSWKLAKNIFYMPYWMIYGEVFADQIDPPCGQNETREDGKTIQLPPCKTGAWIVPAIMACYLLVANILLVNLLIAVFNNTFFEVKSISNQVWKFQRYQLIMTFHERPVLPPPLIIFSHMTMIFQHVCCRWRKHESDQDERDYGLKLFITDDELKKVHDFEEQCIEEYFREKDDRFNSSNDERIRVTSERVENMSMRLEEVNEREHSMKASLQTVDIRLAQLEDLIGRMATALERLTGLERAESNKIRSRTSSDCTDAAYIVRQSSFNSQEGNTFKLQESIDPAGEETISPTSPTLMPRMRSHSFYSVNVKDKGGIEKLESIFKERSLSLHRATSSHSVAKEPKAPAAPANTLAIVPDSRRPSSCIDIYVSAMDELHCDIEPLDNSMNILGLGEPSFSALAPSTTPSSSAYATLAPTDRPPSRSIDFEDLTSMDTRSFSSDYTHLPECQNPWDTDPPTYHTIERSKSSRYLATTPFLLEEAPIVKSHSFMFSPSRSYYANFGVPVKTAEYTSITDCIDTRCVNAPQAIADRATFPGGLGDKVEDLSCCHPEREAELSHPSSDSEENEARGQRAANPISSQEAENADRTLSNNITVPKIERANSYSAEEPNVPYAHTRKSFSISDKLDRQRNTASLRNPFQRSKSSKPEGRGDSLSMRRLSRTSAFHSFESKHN

The first experiment addresses T1, mouse TRPM3α2 (mTRPM3) ion channel (Mus musculus, UniProt J9SQF3).
T1 construct: expressed in transfected cells; host or cells: flip-in HEK293
Briefly: Monitoring the TRPM3 ion channel driven Ca2+ uptake (Fluo-4 AM assay). The settings on record: TRPM3 overexpressing flip-in HEK293 cells, channel stimulated with Pregnenolone sulfate (PS) 50 μM. Format: cell-based. The method in brief:
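Flp-In HEK293 cells overexpressing mTRPM3α2, loaded with Fluo-4 AM and added to wells holding compound plus 50 μM pregnenolone sulfate in Ca2+-containing Krebs buffer. Fluorescence (ex 485/em 535) read right after cell addition. Inhibition normalised to vehicle and positive-control inhibitor; IC50 derived.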
As a reminder, the IC50 is the concentration needed to halve the response being measured. Low values mean greater potency in that assay, high ones weaker potency in that assay. `Cc1ncc(COc2ccc3sc(C)c(C(=O)NC4(CO)CC4)c3c2)s1` [Cpd 022, N-[1-(hydroxymethyl)cyclopropyl]-2-methyl-5-[(2-methyl-1,3-thiazol-5-yl)methoxy]-1-benzothiophene-3-carboxamide] registered an IC50 of 1000 to 20000 nM.
On the same count and under the same terms, the figure for `Cc1sc2ccc(OCC3CC3)cc2c1C(=O)NC(C)(CO)CO` [Cpd 069, 5-(cyclopropylmethoxy)-N-(1,3-dihydroxy-2-methylpropan-2-yl)-2-methyl-1-benzothiophene-3-carboxamide] is less than 1000 nM; for `Cc1sc2ccc(OCc3cccnc3C(F)(F)F)cc2c1C(=O)O` [Cpd 109, 2-methyl-5-{[2-(trifluoromethyl)pyridin-3-yl]methoxy}-1-benzothiophene-3-carboxylic acid] it is less than 1000 nM; for `Cc1sc2ccc(OCc3cccnc3C(F)(F)F)cc2c1C(=O)NCC1CCC(=O)N1` (stereo not shown) [Cpd 103, 2-methyl-N-[(5-oxopyrrolidin-2-yl)methyl]-5-{[2-(trifluoromethyl)pyridin-3-yl]methoxy}-1-benzothiophene-3-carboxamide] it is less than 1000 nM.
Same read-out and setting: the figure for `Cc1ncsc1COc1ccc2sc(C)c(C(=O)NCC3(N(C)C)CCCC3)c2c1` [Cpd 114, N-{[1-(dimethylamino)cyclopentyl]methyl}-2-methyl-5-[(4-methyl-1,3-thiazol-5-yl)methoxy]-1-benzothiophene-3-carboxamide] is less than 1000 nM; for `CNC(=O)c1c(C)sc2ccc(OCc3scnc3C)cc12` [Cpd 137, N,2-dimethyl-5-[(4-methyl-1,3-thiazol-5-yl)methoxy]-1-benzothiophene-3-carboxamide] it is 1000 to 20000 nM.
As for `Cc1sc2ccc(OCc3ccccc3F)cc2c1C(=O)NC1(C(N)=O)COC1` [Cpd 087, 3-{5-[(2-fluorophenyl)methoxy]-2-methyl-1-benzothiophene-3-amido}oxetane-3-carboxamide], the IC50 is less than 1000 nM.
The same measure, in the same setting: in the case of `Cc1sc2ccc(OCC3CC3)cc2c1C(=O)N[C@@H](CO)C(N)=O` [Cpd 050, (2S)-2-{[5-(cyclopropylmethoxy)-2-methyl-1-benzothiophen-3-yl]formamido}-3-hydroxypropanamide] it was less than 1000 nM; in that of `Cc1ncsc1COc1ccc2sc(C)c(C(=O)NCC(C)(C)N3CCOCC3)c2c1` [Cpd 044, 2-methyl-5-[(4-methyl-1,3-thiazol-5-yl)methoxy]-N-[2-methyl-2-(morpholin-4-yl)propyl]-1-benzothiophene-3-carboxamide], less than 1000 nM.
Compound `CN1CC(NC(=O)c2c(C(F)F)sc3ccc(OCc4ccccc4)cc23)C(F)(F)C1` (stereo not shown) [Cpd 119, 5-(benzyloxy)-N-(4,4-difluoro-1-methylpyrrolidin-3-yl)-2-(difluoromethyl)-1-benzothiophene-3-carboxamide] displayed an IC50 of 1000 to 20000 nM.
The same measure, in the same setting: the figure for `Cc1ncsc1COc1ccc2sc(C)c(C(=O)NCC(C)(C)O)c2c1` [Cpd 045, N-(2-hydroxy-2-methylpropyl)-2-methyl-5-[(4-methyl-1,3-thiazol-5-yl)methoxy]-1-benzothiophene-3-carboxamide] is less than 1000 nM.
Still for that read-out and setting: in the case of `Cc1ncc(COc2ccc3sc(C)c(C(=O)NC4(C(N)=O)CCOC4)c3c2)s1` (stereo not shown) [Cpd 020, 3-{2-methyl-5-[(2-methyl-1,3-thiazol-5-yl)methoxy]-1-benzothiophene-3-amido}oxolane-3-carboxamide] it was less than 1000 nM; in that of `Cc1sc2ccc(OCc3cccnc3C(F)(F)F)cc2c1C(=O)Nc1ccn(C)n1` [Cpd 092, 2-methyl-N-(1-methyl-1H-pyrazol-3-yl)-5-{[2-(trifluoromethyl)pyridin-3-yl]methoxy}-1-benzothiophene-3-carboxamide], less than 1000 nM.
Turning to `Cc1ncsc1COc1ccc2sc(C)c(C(=O)NCCN3CCOC3=O)c2c1` [Cpd 048, 2-methyl-5-[(4-methyl-1,3-thiazol-5-yl)methoxy]-N-[2-(2-oxo-1,3-oxazolidin-3-yl)ethyl]-1-benzothiophene-3-carboxamide], the IC50 was in the range of 1000 to 20000 nM.
Still for that read-out and setting: the figure for `Cc1sc2ccc(OCc3cccnc3C(F)(F)F)cc2c1C(=O)NCC(C)(C)N1CCOCC1` [Cpd 099, 2-methyl-N-[2-methyl-2-(morpholin-4-yl)propyl]-5-{[2-(trifluoromethyl)pyridin-3-yl]methoxy}-1-benzothiophene-3-carboxamide] is 1000 to 20000 nM; for `Cc1ncsc1COc1ccc2sc(C)c(C(=O)NC3CCOC3)c2c1` (stereo not shown) [Cpd 043, 2-methyl-5-[(4-methyl-1,3-thiazol-5-yl)methoxy]-N-(oxolan-3-yl)-1-benzothiophene-3-carboxamide] it is less than 1000 nM.
In turn, `Cc1sc2ccc(OCc3ccccc3F)cc2c1C(=O)N[C@H](C)C(N)=O` [Cpd 002, (2R)-2-({5-[(2-fluorophenyl)methoxy]-2-methyl-1-benzothiophen-3-yl}formamido)propanamide] returned an IC50 of less than 1000 nM.

A further experiment relates to TRPM3.
Assay: not given
The settings on record: wild type mice vs knock-out TRPM3 mice; cited from earlier work.
Turning to pregnenolone sulfate, the pain entry is “evoked pain in wild type mice but not in knock-out TRPM3 mice”.

System in another experiment: not given
Assay: not given
The settings on record: rat pain model; cited from earlier work.
As to `O=C1C[C@@H](c2ccc(O)cc2)Oc2cc(O)ccc21` [Liquiritigenin], the “mechanical and cold hyperalgesia” value was “decrease mechanical and cold hyperalgesia”.
